Results from US20130035326A1 (AMBIT BIOSCIENCES CORPORATION, priority 2009, published 2013).

How the values were obtained:
FLT3 kinase = biological target: T1, FLT3 kinase (Homo sapiens, UniProt P36888); assay: Competition binding assay, FLT3 Kd
T1 construct: made in house; host or cells: T7 phage display or HEK-293 cells
T1 sequence (P36888 27-993): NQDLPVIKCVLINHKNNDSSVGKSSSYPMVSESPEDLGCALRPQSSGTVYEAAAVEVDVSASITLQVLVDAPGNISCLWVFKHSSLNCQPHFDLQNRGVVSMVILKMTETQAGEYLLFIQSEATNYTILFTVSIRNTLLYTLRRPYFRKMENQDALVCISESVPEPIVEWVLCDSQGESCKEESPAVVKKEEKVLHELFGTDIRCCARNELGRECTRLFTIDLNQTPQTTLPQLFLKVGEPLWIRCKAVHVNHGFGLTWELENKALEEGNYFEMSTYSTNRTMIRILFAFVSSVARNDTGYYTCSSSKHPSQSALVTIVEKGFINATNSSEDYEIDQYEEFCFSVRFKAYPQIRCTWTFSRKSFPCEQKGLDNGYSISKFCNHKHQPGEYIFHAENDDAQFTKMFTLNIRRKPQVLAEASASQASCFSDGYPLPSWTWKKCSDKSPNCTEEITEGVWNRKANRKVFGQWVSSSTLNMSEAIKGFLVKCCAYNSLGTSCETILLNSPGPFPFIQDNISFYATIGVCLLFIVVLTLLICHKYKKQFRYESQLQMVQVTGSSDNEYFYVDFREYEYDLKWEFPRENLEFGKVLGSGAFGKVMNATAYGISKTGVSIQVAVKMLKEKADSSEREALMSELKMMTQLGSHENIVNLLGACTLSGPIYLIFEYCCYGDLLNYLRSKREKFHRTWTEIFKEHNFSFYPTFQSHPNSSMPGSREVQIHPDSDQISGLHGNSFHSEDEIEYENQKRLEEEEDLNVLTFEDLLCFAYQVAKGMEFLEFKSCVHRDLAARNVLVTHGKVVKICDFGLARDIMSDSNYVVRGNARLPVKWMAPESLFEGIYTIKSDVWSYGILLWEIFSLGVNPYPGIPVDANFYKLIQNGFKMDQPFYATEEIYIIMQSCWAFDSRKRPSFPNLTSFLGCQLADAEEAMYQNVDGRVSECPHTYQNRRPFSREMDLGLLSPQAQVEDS
Outline: (§1)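 Readout: qPCR of kinase eluted from ligand-coated beads. T7 phage-fused or HEK-293-expressed DNA-tagged kinase, 1 h RT equilibration with compound; Kd from 11-pt 3-fold series.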

KIT kinase = biological target: T2, KIT kinase (Homo sapiens, UniProt P10721); assay: Competition binding assay, KIT Kd
T2 construct: made in house; host or cells: T7 phage display or HEK-293 cells
Outline: as §1

CSF-1R kinase = biological target: T3, CSF-1R kinase (Homo sapiens, UniProt P07333); assay: Competition binding assay, CSF-1R Kd
T3 construct: made in house; host or cells: T7 phage display or HEK-293 cells
Outline: as §1

MV4-11 cells = assay: MV4-11 cell proliferation assay (Alamar Blue); format: cell-based; details: Homo sapiens, MV4-11, 72 h, 3 days incubation
Outline: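 Flt3-ITD MV4-11 cells were serum-starved overnight in Iscove's with 0.5% FBS, then given compound at 9 half-log concentrations (0.5% DMSO) for 3 days at 37° C. Alamar Blue reduction was read after 3 h by fluorescence (560/590 nm). IC50 is the mean of duplicates versus negative control.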

[1] = biological target: kinase panel containing either 359 or 386 distinct kinases; assay: Selectivity score S10 from competition binding against a panel of kinases; details: compounds at 10 μM; panel of 359 distinct kinases
Method: Competition binding assays used herein were developed, validated and performed as described in Fabian et al., Nature Biotechnology 2005, 23,329-336. Kinases were produced as fusions to T7 phage (See, Fabian et al. or WO04/015142) or alternatively, the kinases were expressed in HEK-293 cells and subsequently tagged with DNA for PCR detection (See, WO08/005,310). For the binding assays, streptavidin-coated magnetic beads were treated with biotinylated affinity ligands for 30 min at room temperature to generate affinity resins. The liganded beads were blocked with excess biotin and washed with blocking buffer (SeaBlock (Pierce), 1% BSA, 0.05% Tween 20, 1 mM DTT) to remove unbound ligand and to reduce non-specific binding. Binding reactions were assembled by combining kinase, liganded affinity beads, and test compounds in 1× binding buffer (20% SeaBlock, 0.17×PBS, 0.05% Tween 20, 6 mM DTT). Test compounds were prepared as 100× stocks in DMSO and diluted into the aqueous environment. Kds were determined using an eleven point threefold serial dilutions. DMSO or control compounds were was added to control assays lacking a test compound. Primary screen assays were performed in polypropylene 384-well plates in a final volume of 20-40 μL, while Kd determinations were performed in polystyrene 96-well plates in a final volume of 135 μL. The assay plates were incubated at room temperature with shaking for 1 hour to allow the binding reactions to reach equilibrium, and the affinity beads were washed extensively with wash buffer (1×PBS, 0.05% Tween 20) to remove unbound protein. The beads were then resuspended in elution buffer (1×PBS, 0.05% Tween 20, 0.5 μM non-biotinylated affinity ligand) and incubated at room temperature with shaking for 30 min. The kinase concentration in the eluates was measured by quantitative PCR.
A selectivity score (S10) is a quantitative measure of selectivity of a compound against a panel of kinases. An S10 was calculated for a compound by dividing the number of kinases found to have a percent of control (DMSO) less than 10 by the total number of distinct kinases tested (excluding mutant variants). Percent of control (POC) is calculated by subtracting the signal of the control compound (POC=0) from the signal of the test compound and dividing the outcome by the signal of DMSO (POC=100) minus the signal of the control compound. For the compounds disclosed herein, S10 scores were obtained by testing the compounds at 10 μM concentration in a kinase panel containing either 359 or 386 distinct kinases.

T3 sequence (P07333 20-972): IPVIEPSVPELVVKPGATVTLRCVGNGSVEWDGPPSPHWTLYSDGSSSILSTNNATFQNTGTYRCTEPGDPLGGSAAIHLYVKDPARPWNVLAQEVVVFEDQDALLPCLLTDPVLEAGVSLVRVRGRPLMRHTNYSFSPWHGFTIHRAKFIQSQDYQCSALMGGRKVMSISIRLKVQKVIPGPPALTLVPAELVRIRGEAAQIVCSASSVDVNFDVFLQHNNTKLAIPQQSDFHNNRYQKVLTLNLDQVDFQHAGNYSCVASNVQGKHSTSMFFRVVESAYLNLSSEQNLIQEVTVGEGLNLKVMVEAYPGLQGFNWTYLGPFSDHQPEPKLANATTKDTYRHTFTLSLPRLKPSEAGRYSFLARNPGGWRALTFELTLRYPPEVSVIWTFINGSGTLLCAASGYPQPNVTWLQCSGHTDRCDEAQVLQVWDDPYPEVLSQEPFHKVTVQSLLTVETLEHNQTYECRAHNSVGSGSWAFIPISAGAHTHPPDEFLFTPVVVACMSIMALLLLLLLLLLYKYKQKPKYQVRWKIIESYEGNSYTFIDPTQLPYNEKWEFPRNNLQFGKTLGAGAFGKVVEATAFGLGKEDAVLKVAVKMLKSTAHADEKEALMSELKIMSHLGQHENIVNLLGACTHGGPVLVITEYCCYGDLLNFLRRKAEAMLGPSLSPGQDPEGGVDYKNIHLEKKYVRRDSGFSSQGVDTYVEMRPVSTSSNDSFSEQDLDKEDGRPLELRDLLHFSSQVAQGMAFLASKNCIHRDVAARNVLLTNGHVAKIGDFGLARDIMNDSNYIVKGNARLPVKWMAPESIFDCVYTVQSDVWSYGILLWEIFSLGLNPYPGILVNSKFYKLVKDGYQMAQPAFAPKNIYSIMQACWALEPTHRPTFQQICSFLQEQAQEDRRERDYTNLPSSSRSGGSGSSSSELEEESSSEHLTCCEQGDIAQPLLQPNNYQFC
T2 sequence (P10721 26-976): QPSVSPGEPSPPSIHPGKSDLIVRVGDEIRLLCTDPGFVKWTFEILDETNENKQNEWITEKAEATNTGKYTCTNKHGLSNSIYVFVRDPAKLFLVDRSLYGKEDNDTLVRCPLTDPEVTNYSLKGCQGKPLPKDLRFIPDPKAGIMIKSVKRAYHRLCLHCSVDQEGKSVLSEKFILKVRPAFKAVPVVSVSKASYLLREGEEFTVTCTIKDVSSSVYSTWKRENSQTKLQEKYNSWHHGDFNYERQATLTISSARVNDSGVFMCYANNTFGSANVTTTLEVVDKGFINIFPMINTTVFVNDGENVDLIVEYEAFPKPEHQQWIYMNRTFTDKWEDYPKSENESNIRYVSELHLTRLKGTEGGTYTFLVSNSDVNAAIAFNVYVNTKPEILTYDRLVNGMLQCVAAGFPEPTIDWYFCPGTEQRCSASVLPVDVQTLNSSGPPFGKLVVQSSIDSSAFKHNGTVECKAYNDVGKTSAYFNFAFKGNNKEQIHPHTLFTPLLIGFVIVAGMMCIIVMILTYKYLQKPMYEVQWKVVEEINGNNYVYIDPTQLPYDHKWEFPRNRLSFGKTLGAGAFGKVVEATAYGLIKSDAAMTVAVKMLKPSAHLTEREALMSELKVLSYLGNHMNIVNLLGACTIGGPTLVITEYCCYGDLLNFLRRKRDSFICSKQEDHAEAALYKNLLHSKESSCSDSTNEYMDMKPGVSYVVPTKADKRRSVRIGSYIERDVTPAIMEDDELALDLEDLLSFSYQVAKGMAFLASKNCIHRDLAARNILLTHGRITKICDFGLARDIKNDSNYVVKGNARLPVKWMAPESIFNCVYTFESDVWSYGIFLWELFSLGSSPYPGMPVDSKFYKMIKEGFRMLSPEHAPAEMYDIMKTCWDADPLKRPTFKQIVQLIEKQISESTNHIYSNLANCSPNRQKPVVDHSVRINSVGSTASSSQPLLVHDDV

Compound | Kd (FLT3 kinase) [nM] | Kd (KIT kinase) [nM] | Kd (CSF-1R kinase) [nM] | IC50 (MV4-11 cells) [nM] | Kinase specificty: S(10)-359 panel [1]
CC(C)(C)c1cc(NC(=O)Nc2ccc(-c3cnc(N)c(C#N)c3)cc2)no1 [Example 2, 1-[4-(6-amino-5-cyanopyridin-3-yl)-phenyl]-3-(5-tert-butylisoxazol-3-yl)urea] | ≤ 1 | 1 to 10 | ≤ 10 | ≤ 1 | B (0.1<B≦0.2 nM)
CC(C)(C)c1cc(NC(=O)Nc2ccc(-c3cnc4c(c3)OCC(=O)N4)cc2)no1 [Example 3, 1-(5-tert-butylisoxazol-3-yl)-3-(4-(3-oxo-3,4-dihydro-2H-pyrido[3,2-b][1,4]oxazin-7-yl)phenyl)urea] | ≤ 1 | ≤ 1 | ≤ 10 | ≤ 1 | A (A≦0.1)
CC(C)(C)c1cc(NC(=O)Nc2ccc(-c3cnc4c(c3)OCCN4)cc2)no1 [Example 4, 1-(5-tert-butylisoxazol-3-yl)-3-(4-(3,4-dihydro-2H-pyrido[3,2-b][1,4]oxazin-7-yl)phenyl)urea] | 1 to 10 | 1 to 10 | ≤ 10 | 1 to 10 | B (0.1<B≦0.2 nM)
CC(C)(C)c1cc(NC(=O)Nc2ccc(-c3cnc4c(c3)OCC(CCO)N4)cc2)no1 (centres unmarked) [Example 5, 1-(5-tert-butylisoxazol-3-yl)-3-(4-(3-(2-hydroxyethyl)-3,4-dihydro-2H-pyrido[3,2-b][1,4]oxazin-7-yl)phenyl)urea] | ≤ 1 | 1 to 10 | ≤ 10 | ≤ 1 | B (0.1<B≦0.2 nM)
CC(C)(C)c1cc(NC(=O)Nc2ccc(-c3cnc(NCCN4CCOCC4)c(C#N)c3)cc2)no1 [Example 6, 1-(5-tert-butylisoxazol-3-yl)-3-(4-(5-cyano-6-(2-morpholinoethylamino)pyridin-3-yl)phenyl)urea] | 1 to 10 | 1 to 10 | 10 to 100 | 1 to 10 | A (A≦0.1)
CC(C)(C)c1cc(NC(=O)Nc2ccc(-c3ccc(NCCN4CCOCC4)nc3)cc2)no1 [Example 7, 1-(5-tert-butyl-isoxazol-3-yl)-3-{4-[6-(2-morpholin-4-yl-ethylamino)-pyridin-3-yl]-phenyl}urea] | ≤ 1 | ≤ 1 | ≤ 10 | 1 to 10 | A (A≦0.1)
CC(C)(C)c1cc(NC(=O)Nc2ccc(-c3cnc(N)c(CO)c3)cc2)no1 [Example 8, 1-(4-(6-amino-5-(hydroxymethyl)pyridin-3-yl)phenyl)-3-(5-tert-butylisoxazol-3-yl)urea] | 1 to 10 | 1 to 10 | ≤ 10 | > 500 | A (A≦0.1)
CC(C)(C)c1cc(NC(=O)Nc2ccc(-c3cnc4c(c3)CCC(=O)N4)cc2)no1 [Example 9, 1-(5-tert-butylisoxazol-3-yl)-3-(4-(7-oxo-5,6,7,8-tetrahydro-1,8-naphthyridin-3-yl)phenyl)urea] | 1 to 10 | 1 to 10 | ≤ 10 | 10 to 100 | A (A≦0.1)
Cc1cc(N)nc(C)c1-c1ccc(NC(=O)Nc2cc(C(C)(C)C)on2)cc1 [Example 10, 1-(4-(6-amino-2,4-dimethylpyridin-3-yl)phenyl)-3-(5-tert-butylisoxazol-3-yl)urea] | 1 to 10 | 1 to 10 | ≤ 10 | 100 to 500 | A (A≦0.1)
CC(C)(C)c1cc(NC(=O)Nc2ccc(-c3ccc(N)nc3)c(F)c2)no1 [Example 11, 1-(4-(6-aminopyridin-3-yl)-3-fluorophenyl)-3-(5-tert-butylisoxazol-3-yl)urea] | ≤ 1 | 1 to 10 | ≤ 10 | 1 to 10 | A (A≦0.1)
CC(C)(C)c1cc(NC(=O)Nc2ccc(-c3cnc4c(c3)CCCN4)cc2)no1 [Example 12, 1-(5-tert-butylisoxazol-3-yl)-3-(4-(5,6,7,8-tetrahydro-1,8-naphthyridin-3-yl)phenyl)urea] | 1 to 10 | 1 to 10 | ≤ 10 | 1 to 10 | A (A≦0.1)
CC(C)(C)c1cc(NC(=O)Nc2ccc(-c3cnc(N)c(CN4CCOCC4)c3)cc2)no1 [Example 13, 1-(4-(6-amino-5-(morpholinomethyl)pyridin-3-yl)phenyl)-3-(5-tert-butylisoxazol-3-yl)urea] | 1 to 10 | 1 to 10 | 10 to 100 | 10 to 100 | B (0.1<B≦0.2 nM)
CC(C)(C)c1cc(NC(=O)Nc2ccc(-c3ccc(N)nc3)cc2F)no1 [Example 14, 1-[4-(6-aminopyridin-3-yl)-2-fluorophenyl]-3-(5-tert-butylisoxazol-3-yl)-urea] | ≤ 1 | ≤ 1 | ≤ 10 | ≤ 1 | B (0.1<B≦0.2 nM)
CC(C)(C)c1cc(NC(=O)Nc2ccc(-c3ccc(N)nc3)cc2Cl)no1 [Example 15, 1-(4-(6-aminopyridin-3-yl)-2-chlorophenyl)-3-(5-tert-butylisoxazol-3-yl)urea] | 1 to 10 | 1 to 10 | 10 to 100 | 10 to 100 | B (0.1<B≦0.2 nM)
CC(C)(C)c1cc(NC(=O)Nc2ccc(-c3ccc(N)nc3)c(Cl)c2)no1 [Example 16, 1-(4-(6-aminopyridin-3-yl)-3-chlorophenyl)-3-(5-tert-butylisoxazol-3-yl)urea] | ≤ 1 | ≤ 1 | 10 to 100 | 1 to 10 | B (0.1<B≦0.2 nM)
CC(C)(C)c1cc(NC(=O)Nc2ccc(-c3ccc(N)nc3)cn2)no1 [Example 17, 1-(6′-amino-[3,3′]bipyridinyl-6-yl)-3-(5-tert-butylisoxazol-3-yl)urea] | ≤ 1 | ≤ 1 | ≤ 10 | 1 to 10 | A (A≦0.1)
